According to patent US7658943B2, “Oral pharmaceutical composition for soft capsules containing vinorelbine and method of treatment” (R.P. Scherer Technologies, LLC, priority 2002, dated 2010):
Where two headings read alike, the source gives them in different places.

How the values were obtained:
[1] = Storage stability: impurity content by HPLC; format: physicochemical; conditions: 5° C.±3° C.
Procedure: The HPLC chromatographic method used included an assembly fitted with an automatic injector and variable wavelength UV detector set at 267 nm. The column was stainless steel with a length of 150 mm and diameter of 3.9 mm and filled with octadecylsilyl silica gel—300 Å—spherical, 5 μm. The mobile phase was carried out with sodium decanesulfonate (1.2217 g), phosphate buffer 0.05 M (pH=4.2) 380 ml, and methanol (620 ml), with a thermostatically-controlled column temperature of +40° C. and a mobile phase flow rate of 1 ml/min.
Each batch was stored over the analysis time at 5° C.±3° C.

[2] = 5° C.±3° C., aqueous vinorelbine 10 mg/ml as base
Procedure: In this experiment, pure powder form vinorelbine was compared to soft capsule encapsulated vinorelbine liquid fill composition of the invention (Formula 1.). Coloration was measured at 5° C.±3° C. by ultraviolet absorbance at 420 nm of aqueous vinorelbine at 10 mg/ml expressed as vinorelbine base. […] Mean variation was calculated as from the difference between the average of the results at the per given analysis time and the average of the results at the initial time (t0) for several batches (3 batches for the vinorelbine powder, 3 batches for the 20 mg soft capsules, 4 batches for the 30 mg soft capsules, 3 batches for the 40 mg soft capsules, 3 batches for the 80 mg soft capsules.)

SMILES: CCC1=C[C@@H]2CN(C1)Cc1c([nH]c3ccccc13)[C@@](C(=O)OC)(c1cc3c(cc1OC)N(C)[C@H]1[C@@](O)(C(=O)OC)[C@H](OC(C)=O)[C@]4(CC)C=CCN5CC[C@]31[C@@H]54)C2 [Vinorelbine (powder), 3′,4′-didehydro-4′-deoxy-C′-norvincaleucoblastine]
- Impurity content, max. variation (t0→analysis time) ([1]; 6 months): 0.21 Relative Area Percent
- Impurity content, mean variation (t0→analysis time) ([1]; 6 months): 0.12 Relative Area Percent
- Impurity content, max. variation (t0→analysis time) ([1]; 12 months): 0.44 Relative Area Percent
- Impurity content, mean variation (t0→analysis time) ([1]; 12 months): 0.39 Relative Area Percent
- Impurity content, max. variation (t0→analysis time) ([1]; 18 months): 0.85 Relative Area Percent
- Impurity content, mean variation (t0→analysis time) ([1]; 18 months): 0.78 Relative Area Percent
- Impurity content, max. variation (t0→analysis time) ([1]; 24 months): 1.32 Relative Area Percent
- Impurity content, mean variation (t0→analysis time) ([1]; 24 months): 1.13 Relative Area Percent
- Color evolution (absorbance at 420 nm), max. variation (t0→analysis time) ([2]; 6 months): 0.012
- Color evolution (absorbance at 420 nm), mean variation (t0→analysis time) ([2]; 6 months): 0.006
- Color evolution (absorbance at 420 nm), max. variation (t0→analysis time) ([2]; 12 months): 0.015
- Color evolution (absorbance at 420 nm), mean variation (t0→analysis time) ([2]; 12 months): 0.013
- Color evolution (absorbance at 420 nm), max. variation (t0→analysis time) ([2]; 18 months): 0.025
- Color evolution (absorbance at 420 nm), mean variation (t0→analysis time) ([2]; 18 months): 0.017
- Color evolution (absorbance at 420 nm), max. variation (t0→analysis time) ([2]; 24 months): 0.041
- Color evolution (absorbance at 420 nm), mean variation (t0→analysis time) ([2]; 24 months): 0.029
